Values of other authors, collected in US6265392A, “Low oxygen content compositions of 1α, 25-dihydroxycholeclciferol” (Abbott Laboratories, priority 2000, dated 2001).

Key:
[1] = system: renal osteodystrophy, hypoparathyroidism, osteomalacia, osteoporosis, hepatic osteodystrophy, vitamin D-resistant rickets, vitamin D-dependent rickets …; conditions: children and adults; literature
[2] = system: intestinal absorption of calcium and phosphorous; conditions: in vivo
[3] = free molecules and other reactive forms of oxygen; in solution

SMILES: C=C1/C(=C\C=C2/CCC[C@]3(C)[C@@H]([C@H](C)CCCC(C)(C)O)CC[C@@H]23)C[C@@H](O)C[C@@H]1O [1α,25-dihydroxycholecalciferol]
- Treatment outcome [1]: successful treatment
- Effect on intestinal absorption of calcium and phosphorous [2]: stimulates intestinal absorption of calcium and phosphorous
- Sensitivity to oxygen [3]: sensitive to the presence of oxygen
- Solubility in organic solvents (organic solvents): soluble in organic solvents
- Solubility in water (water): practically insoluble in water
